Results reported in US8586752B1, “Crystalline S-omeprazole strontium hydrate, method for preparing same, and pharmaceutical composition containing same” (Hanmi Science Co., Ltd, priority 2005, dated 2013).
Read-outs that look alike come from different tables or passages of the source.

Experiments:
[1] = Water-solubility test; type: physicochemical; conditions: for Solubility: deionized water to saturation, 25° C., HPLC condition A; for Saturation pH: saturated solution in deionized water
Experimental: The S-omeprazole strontium tetrahydrate of the present invention and the S-omeprazole magnesium trihydrate were each dissolved in deionized water to saturation. The water-solubility of each of the saturated solutions was analyzed by HPLC under the previously described condition A and the amount of each salt hydrate dissolved was measured.

[2] = system: rats; conditions: dose of 633 mg/kg/day; cited from earlier work
[3] = Storage stability under long-term, accelerated aging and stressed conditions; type: physicochemical; conditions: 25° C./60% RH exposed; 40° C./75% RH exposed; 60° C./75% RH closed; 2 to 4 weeks
[4] = Hygroscopicity test; type: physicochemical; conditions: for Moisture content: exposed
Experimental: The inventive S-omeprazole strontium was exposed in the naked state at 25 to 40° C. and 40 to 90% relative humidity for a period of over 15 days. The moisture contents of the inventive salt measured with a Karl-Fisher titrator at storage time 0, 3, 7 and 15 days are shown in Table 4.

[5] = Heat stability test of the inventive salt; type: physicochemical; conditions: for Amount of titrated S-omeprazole: sealed, 60° C. and 75% relative humidity
Experimental: The salt of Example 1 was stored in the sealed state under a stressed condition of 60° C. and 75% relative humidity, and the remaining amounts of active S-omeprazole after 7, 14, 21 and 28 days were measured by HPLC condition A. The results are shown in Table 5.

Structure (SMILES): COc1ccc2[n-]c([S+]([O-])Cc3ncc(C)c(OC)c3C)nc2c1.COc1ccc2[n-]c([S+]([O-])Cc3ncc(C)c(OC)c3C)nc2c1.O.O.O.[Mg+2] (centres unmarked) [Magnesium trihydrate, S-Omeprazole Magnesium Trihydrate, reference compound]
- Solubility [1]: 1.5 mg/mL
- Saturation pH [1]: 9.9

Structure (SMILES): [Sr+2] [strontium, Strontium]
- Safety [2]: no safety problems

Structure (SMILES): COc1ccc2nc([S@@+]([O-])Cc3ncc(C)c(OC)c3C)[nH]c2c1 [S-omeprazole strontium tetrahydrate, S-omerprazole strontium tetrahydrate]
- Stability on storage [3]: maintain the initial moisture content, purity and crystallinity
- Solubility ([1]; 25 °C, water, thermodynamic from solid, read-out: Solubility): ~17.6 mg/mL
- Solubility [1]: 17.6 mg/mL
- Saturation pH [1]: 10.2
- Water solubility relative to S-omeprazole magnesium trihydrate ([1]; times higher than S-omeprazole magnesium trihydrate): at least 10 times
- Moisture content ([4]; 40% relative humidity (25° C.), 0 day): 9.0 wt %
- Moisture content ([4]; 40% relative humidity (25° C.), 3 days): 8.9 wt %
- Moisture content ([4]; 40% relative humidity (25° C.), 7 days): 8.7 wt %
- Moisture content ([4]; 40% relative humidity (25° C.), 15 days): 8.8 wt %
- Moisture content ([4]; 60% relative humidity (25° C.), 0 day): 9.0 wt %
- Moisture content ([4]; 60% relative humidity (25° C.), 3 days): 9.0 wt %
- Moisture content ([4]; 60% relative humidity (25° C.), 7 days): 9.2 wt %
- Moisture content ([4]; 60% relative humidity (25° C.), 15 days): 9.1 wt %
- Moisture content ([4]; 75% relative humidity (40° C.), 0 day): 9.0 wt %
- Moisture content ([4]; 75% relative humidity (40° C.), 3 days): 8.9 wt %
- Moisture content ([4]; 75% relative humidity (40° C.), 7 days): 9.0 wt %
- Moisture content ([4]; 75% relative humidity (40° C.), 15 days): 8.9 wt %
- Moisture content ([4]; 90% relative humidity (35° C.), 0 day): 9.0 wt %
- Moisture content ([4]; 90% relative humidity (35° C.), 3 days): 9.2 wt %
- Moisture content ([4]; 90% relative humidity (35° C.), 7 days): 9.3 wt %
- Moisture content ([4]; 90% relative humidity (35° C.), 15 days): 9.2 wt %
- Hygroscopicity ([4]; under a highly humid condition): less hygroscopic
- Initial moisture content ([4]; under a low humidity condition): maintained
- Amount of titrated S-omeprazole ([5]; 7 days): 997 µg/mg
- Amount of titrated S-omeprazole ([5]; 14 days): 998 µg/mg
- Amount of titrated S-omeprazole ([5]; 21 days): 997 µg/mg
- Amount of titrated S-omeprazole ([5]; 28 days): 997 µg/mg
- Amount of titrated S-omeprazole ([5]; Initial): 997 µg/mg
- Heat stability ([5]; summary of Table 5 (60° C., 75% relative humidity, sealed, up to 28 days)): highly stable
